Here are results for five compounds from ChEMBL document CHEMBL1201862, “PubChem BioAssay data set” (2004).

Common to all, as to type: functional
One experiment has as its system H4. Description: Luminescence Cell-Based Dose Response HTS to Identify Activators of 5'UTR Stem-Loop Driven Prion Protein mRNA Translation in H4 Neuroglioblastoma Cells. [Related pubchem assays: 1829 (Project Summary), 1814 (Primary HTS)]. The note with it: Homo sapiens.
The target in experiment [1] is T1, Tyrosine-protein kinase JAK3 (Homo sapiens, UniProt P52333).
T1 sequence (P52333 whole entry): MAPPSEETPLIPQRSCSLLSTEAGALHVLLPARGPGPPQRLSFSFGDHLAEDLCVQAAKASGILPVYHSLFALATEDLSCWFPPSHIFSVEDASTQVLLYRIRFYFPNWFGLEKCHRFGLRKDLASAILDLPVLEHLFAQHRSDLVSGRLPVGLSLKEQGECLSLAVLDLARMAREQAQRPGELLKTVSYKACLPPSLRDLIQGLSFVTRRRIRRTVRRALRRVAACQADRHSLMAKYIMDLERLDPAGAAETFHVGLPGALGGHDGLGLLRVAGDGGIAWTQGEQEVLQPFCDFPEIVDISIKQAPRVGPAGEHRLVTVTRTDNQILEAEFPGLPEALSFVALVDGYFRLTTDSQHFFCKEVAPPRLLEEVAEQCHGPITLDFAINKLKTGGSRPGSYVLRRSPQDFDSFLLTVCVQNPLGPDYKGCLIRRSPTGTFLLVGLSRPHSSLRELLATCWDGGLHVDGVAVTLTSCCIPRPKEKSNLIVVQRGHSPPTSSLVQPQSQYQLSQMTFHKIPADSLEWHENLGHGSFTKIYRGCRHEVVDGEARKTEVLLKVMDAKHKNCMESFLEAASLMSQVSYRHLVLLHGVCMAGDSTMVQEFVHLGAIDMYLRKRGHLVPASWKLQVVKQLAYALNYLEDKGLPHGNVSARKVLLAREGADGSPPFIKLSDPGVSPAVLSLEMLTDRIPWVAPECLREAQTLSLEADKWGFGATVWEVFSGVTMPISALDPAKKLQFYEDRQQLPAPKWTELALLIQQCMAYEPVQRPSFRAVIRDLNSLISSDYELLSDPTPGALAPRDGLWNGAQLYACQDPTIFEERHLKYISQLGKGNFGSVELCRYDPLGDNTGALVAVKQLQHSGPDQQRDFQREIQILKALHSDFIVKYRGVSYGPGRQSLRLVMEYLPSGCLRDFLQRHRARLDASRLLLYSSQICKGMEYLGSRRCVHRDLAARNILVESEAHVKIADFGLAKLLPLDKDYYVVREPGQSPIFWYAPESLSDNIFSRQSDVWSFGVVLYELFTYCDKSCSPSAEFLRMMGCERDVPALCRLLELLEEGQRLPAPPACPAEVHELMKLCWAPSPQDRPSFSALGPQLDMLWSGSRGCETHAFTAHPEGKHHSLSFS

Experiment [2] deals with MAP kinase-activated protein kinase 5 (Homo sapiens, UniProt Q8IW41).
Experiment [3] deals with Tyrosine-protein kinase SYK (Homo sapiens, UniProt P43405).
Experiment [4] deals with Tyrosine-protein kinase Fyn (Homo sapiens, UniProt P06241).
Sequence of Tyrosine-protein kinase Fyn (P06241 whole entry): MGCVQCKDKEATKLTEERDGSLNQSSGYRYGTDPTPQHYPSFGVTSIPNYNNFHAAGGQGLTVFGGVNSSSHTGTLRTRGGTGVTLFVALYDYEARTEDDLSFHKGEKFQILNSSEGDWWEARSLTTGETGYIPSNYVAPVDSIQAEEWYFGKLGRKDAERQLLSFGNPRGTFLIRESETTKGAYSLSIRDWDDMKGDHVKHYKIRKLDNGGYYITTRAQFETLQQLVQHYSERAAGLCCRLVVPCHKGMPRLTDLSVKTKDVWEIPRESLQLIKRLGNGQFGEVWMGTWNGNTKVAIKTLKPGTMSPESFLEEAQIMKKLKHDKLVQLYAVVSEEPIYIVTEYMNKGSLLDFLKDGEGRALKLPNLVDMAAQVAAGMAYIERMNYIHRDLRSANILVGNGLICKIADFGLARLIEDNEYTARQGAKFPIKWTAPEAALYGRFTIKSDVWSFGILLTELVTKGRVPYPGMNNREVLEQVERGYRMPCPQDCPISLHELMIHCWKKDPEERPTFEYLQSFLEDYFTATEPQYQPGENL
For experiment [5], the target named is Hepatocyte growth factor receptor (Homo sapiens, UniProt P08581).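 Further: kinase panel profiling across the kinome, with MET as the panel member.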
Experiment [6] concerns the target Megakaryocyte-associated tyrosine-protein kinase (Homo sapiens, UniProt P42679).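 Further: affinity measured as one member of a kinase panel (Navigating the Kinome) against MATK.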
Experiment [7] concerns the target Protein kinase C gamma type (Homo sapiens, UniProt P05129).
For experiment [8], the target named is Dual specificity tyrosine-phosphorylation-regulated kinase 3 (Homo sapiens, UniProt O43781).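 Further: measured as one member of a broad kinase panel.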
Experiment [9] has as its target Receptor tyrosine-protein kinase erbB-2 (Homo sapiens, UniProt P04626). As to the kind of experiment: Navigating the Kinome. Panel member name: ERBB2.
In experiment [10] the target is Mitogen-activated protein kinase 9 (Homo sapiens, UniProt P45984).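 Further: value from a kinome panel profiling assay, MAPK9 panel entry.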
Sequence of Mitogen-activated protein kinase 9 (P45984 whole entry): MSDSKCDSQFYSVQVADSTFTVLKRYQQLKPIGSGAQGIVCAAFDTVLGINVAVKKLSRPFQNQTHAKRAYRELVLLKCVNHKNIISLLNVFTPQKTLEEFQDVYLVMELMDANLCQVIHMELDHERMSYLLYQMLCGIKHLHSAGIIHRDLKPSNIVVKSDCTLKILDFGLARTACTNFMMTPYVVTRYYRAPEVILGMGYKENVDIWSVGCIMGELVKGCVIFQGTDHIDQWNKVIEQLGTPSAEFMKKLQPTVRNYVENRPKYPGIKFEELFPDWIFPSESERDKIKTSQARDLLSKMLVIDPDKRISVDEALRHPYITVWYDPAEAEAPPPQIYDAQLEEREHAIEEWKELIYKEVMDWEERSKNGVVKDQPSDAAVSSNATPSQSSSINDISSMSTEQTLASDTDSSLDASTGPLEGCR
In experiment [11] the target is Fibroblast growth factor receptor 3 (Homo sapiens, UniProt P22607).
Experiment [12] has as its target Casein kinase I isoform alpha (Homo sapiens, UniProt P48729).
Experiment [13] has as its target Casein kinase II subunit alpha (Homo sapiens, UniProt P68400).
Experiment [14] addresses Phosphorylase b kinase gamma catalytic chain, liver/testis isoform (Homo sapiens, UniProt P15735).
Experiment [15] addresses MAP kinase-activated protein kinase 3 (Homo sapiens, UniProt Q16644).
The target in experiment [16] is Calcium/calmodulin-dependent protein kinase type 1 (Homo sapiens, UniProt Q14012).
Sequence of Calcium/calmodulin-dependent protein kinase type 1 (Q14012 whole entry): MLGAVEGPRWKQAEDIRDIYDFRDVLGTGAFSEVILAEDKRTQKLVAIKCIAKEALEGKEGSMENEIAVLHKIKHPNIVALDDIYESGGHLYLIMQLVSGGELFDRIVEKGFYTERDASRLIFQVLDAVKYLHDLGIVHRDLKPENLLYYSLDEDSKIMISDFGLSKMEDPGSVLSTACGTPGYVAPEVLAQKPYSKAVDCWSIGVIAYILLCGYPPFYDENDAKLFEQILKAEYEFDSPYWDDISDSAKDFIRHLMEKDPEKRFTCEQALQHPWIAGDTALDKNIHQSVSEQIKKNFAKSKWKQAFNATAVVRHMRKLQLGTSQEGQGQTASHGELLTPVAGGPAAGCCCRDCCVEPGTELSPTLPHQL
Experiment [17] addresses Serine/threonine-protein kinase Nek4 (Homo sapiens, UniProt P51957).
The target of experiment [18] is Homeodomain-interacting protein kinase 2 (Homo sapiens, UniProt Q9H2X6).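 Further: measured within a kinome-wide kinase profiling panel, HIPK2 being one panel member.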
The target of experiment [19] is Receptor-type tyrosine-protein kinase FLT3 (Homo sapiens, UniProt P36888).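 Further: FLT3 was tested as one member of a kinome-wide kinase panel.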
The target in experiment [20] is MAP/microtubule affinity-regulating kinase 3 (Homo sapiens, UniProt P27448).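 Further: MARK3 affinity measured as one member of a kinome panel.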
Experiment [21] concerns the target cGMP-dependent protein kinase 1 (Homo sapiens, UniProt Q13976).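 Further: value from a kinome panel screen with PRKG1 as the panel member.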
The target in experiment [22] is Tyrosine-protein kinase FRK (Homo sapiens, UniProt P42685).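 Further: FRK tested as one member of a kinome panel.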
The target in experiment [23] is Proto-oncogene tyrosine-protein kinase receptor Ret (Homo sapiens, UniProt P07949).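 Further: measured within a kinome-wide profiling panel, RET as the panel member.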
Sequence of Proto-oncogene tyrosine-protein kinase receptor Ret (P07949 whole entry): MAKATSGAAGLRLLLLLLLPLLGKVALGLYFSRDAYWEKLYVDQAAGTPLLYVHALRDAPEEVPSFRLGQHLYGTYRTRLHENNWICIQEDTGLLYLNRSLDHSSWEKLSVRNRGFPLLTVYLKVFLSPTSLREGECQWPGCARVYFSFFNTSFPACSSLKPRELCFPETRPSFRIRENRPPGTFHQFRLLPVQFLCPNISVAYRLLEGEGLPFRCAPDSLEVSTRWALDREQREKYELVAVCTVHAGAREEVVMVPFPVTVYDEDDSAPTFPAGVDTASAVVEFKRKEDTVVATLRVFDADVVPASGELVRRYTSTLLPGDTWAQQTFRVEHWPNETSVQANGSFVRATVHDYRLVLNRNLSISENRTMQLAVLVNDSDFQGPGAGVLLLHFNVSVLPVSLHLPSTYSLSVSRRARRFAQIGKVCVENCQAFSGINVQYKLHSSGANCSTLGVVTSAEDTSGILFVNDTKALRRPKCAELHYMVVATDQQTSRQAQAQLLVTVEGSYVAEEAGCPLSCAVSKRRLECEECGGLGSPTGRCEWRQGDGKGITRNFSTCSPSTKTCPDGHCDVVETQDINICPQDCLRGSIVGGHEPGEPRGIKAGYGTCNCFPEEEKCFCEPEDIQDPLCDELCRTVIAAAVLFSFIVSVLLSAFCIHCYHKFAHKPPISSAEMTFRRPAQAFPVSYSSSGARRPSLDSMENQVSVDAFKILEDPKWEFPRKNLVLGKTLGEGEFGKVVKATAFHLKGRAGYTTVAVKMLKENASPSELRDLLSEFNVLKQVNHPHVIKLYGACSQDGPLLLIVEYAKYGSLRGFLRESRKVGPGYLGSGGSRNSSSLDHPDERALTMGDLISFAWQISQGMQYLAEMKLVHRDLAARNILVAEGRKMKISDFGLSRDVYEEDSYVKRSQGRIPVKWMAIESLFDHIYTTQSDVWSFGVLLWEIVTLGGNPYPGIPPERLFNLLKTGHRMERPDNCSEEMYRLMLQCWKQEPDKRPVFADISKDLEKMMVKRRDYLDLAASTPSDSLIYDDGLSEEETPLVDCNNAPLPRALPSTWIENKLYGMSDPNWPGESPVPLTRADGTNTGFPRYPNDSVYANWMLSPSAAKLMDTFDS
The next experiment concerns the target Focal adhesion kinase 1 (Homo sapiens, UniProt Q05397).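 Further: measured as one member of a kinome panel.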
The target in experiment [24] is Dual specificity tyrosine-phosphorylation-regulated kinase 1B (Homo sapiens, UniProt Q9Y463). As to the kind of experiment: Navigating the Kinome. Panel member name: DYRK1B.
The target in experiment [25] is Dual specificity mitogen-activated protein kinase kinase 2 (Homo sapiens, UniProt P36507). As to the kind of experiment: Navigating the Kinome. Panel member name: MAP2K2.
Experiment [26] deals with Vascular endothelial growth factor receptor 3 (Homo sapiens, UniProt P35916).

Active and inactive are the calls of the source.

Sequence of Megakaryocyte-associated tyrosine-protein kinase (P42679 whole entry): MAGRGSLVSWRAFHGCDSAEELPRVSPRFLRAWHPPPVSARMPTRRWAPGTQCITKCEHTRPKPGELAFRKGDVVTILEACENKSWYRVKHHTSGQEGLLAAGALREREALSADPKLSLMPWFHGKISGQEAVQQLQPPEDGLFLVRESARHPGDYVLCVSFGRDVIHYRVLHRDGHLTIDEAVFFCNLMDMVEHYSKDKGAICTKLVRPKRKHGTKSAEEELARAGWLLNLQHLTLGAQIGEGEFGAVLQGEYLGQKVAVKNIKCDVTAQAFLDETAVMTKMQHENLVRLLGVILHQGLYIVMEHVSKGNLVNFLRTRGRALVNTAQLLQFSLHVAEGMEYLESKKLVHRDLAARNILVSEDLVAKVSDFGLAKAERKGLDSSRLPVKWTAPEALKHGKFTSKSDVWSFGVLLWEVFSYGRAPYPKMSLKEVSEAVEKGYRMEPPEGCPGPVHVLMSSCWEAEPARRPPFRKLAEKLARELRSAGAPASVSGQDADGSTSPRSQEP
Sequence of Receptor tyrosine-protein kinase erbB-2 (P04626 whole entry): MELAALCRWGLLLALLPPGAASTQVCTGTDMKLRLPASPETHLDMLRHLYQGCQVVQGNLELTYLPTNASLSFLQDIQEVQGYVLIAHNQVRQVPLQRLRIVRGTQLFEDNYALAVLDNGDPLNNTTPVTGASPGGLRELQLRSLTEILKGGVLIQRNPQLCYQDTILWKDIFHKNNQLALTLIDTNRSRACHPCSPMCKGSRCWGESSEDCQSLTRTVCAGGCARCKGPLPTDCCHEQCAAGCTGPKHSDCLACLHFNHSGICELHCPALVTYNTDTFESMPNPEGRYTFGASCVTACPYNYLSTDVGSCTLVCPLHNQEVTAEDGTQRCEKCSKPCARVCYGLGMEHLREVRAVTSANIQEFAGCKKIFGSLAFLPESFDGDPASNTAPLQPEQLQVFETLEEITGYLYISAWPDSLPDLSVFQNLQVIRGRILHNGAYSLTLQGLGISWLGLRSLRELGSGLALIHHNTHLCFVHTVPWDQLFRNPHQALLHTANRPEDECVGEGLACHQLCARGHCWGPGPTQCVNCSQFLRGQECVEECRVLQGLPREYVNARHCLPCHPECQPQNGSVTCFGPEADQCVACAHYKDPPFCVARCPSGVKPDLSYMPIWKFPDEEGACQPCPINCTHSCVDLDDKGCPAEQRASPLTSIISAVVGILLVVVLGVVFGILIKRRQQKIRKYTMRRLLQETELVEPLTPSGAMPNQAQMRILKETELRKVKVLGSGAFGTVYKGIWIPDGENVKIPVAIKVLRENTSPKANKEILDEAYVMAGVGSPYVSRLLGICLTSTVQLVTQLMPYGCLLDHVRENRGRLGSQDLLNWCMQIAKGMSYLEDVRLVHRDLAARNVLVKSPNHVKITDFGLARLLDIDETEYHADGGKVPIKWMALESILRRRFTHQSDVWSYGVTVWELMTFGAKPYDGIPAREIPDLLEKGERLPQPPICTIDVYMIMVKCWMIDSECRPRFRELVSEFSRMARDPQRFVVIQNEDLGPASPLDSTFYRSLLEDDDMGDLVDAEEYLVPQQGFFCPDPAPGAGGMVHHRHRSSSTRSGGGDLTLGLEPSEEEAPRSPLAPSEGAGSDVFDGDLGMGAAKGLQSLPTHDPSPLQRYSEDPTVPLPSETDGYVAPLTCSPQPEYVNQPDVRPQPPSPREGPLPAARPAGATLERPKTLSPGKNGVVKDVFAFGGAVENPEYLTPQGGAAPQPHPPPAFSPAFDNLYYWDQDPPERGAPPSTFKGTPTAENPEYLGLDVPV

For `O=C1C2=[N+]([O-])[C@H]3CCCC[C@H]3[N+]([O-])=C2c2ccccc21`, in the experiment with H4, the 50% effective concentration (EC50) is 23500 nM (active).

Take `NC1CCC(Nc2nccc(-c3c[nH]c4ncccc34)n2)CC1` (stereo unspecified): the Ki in experiment [1] is 398 nM (active); in [2], > 1580 nM (inactive); in experiment [3], > 1580 nM (inactive); in [4], > 794 nM (inactive); in experiment [5], > 3160 nM (inactive); in [6], > 2000 nM (inactive). Moreover, the Ki in [7] is 158 nM (active); in experiment [8] it was 63.1 nM (active); in [9] it was > 1580 nM (inactive); in [10], 126 nM (active); in [11], > 2000 nM (inactive); in experiment [12], 50.1 nM (active). Further, the Ki in experiment [13] was 2510 nM (active); in [14], 100 nM (active); in [15] it was > 10000 nM (inactive); in experiment [16] it was > 1260 nM (inactive); in [17] it was 2000 nM (active); in experiment [18] it was 15.8 nM (active). Moreover, the Ki was 63.1 nM (active) in experiment [19], 50.1 nM (active) in experiment [20], 100 nM (active) in [21] and 501 nM (active) in experiment [22].

Regarding `OCc1cc(-c2ccc3[nH]ncc3c2)on1`, the Ki in experiment [1] was 100000 nM (active); in experiment [23], 50100 nM (active); on Focal adhesion kinase 1 it was 63100 nM (active); in [5], 31600 nM (active); in experiment [24], 100 nM (active); in [10] it was 79400 nM (active). Besides, the Ki in experiment [25] is 15800 nM (active).

In the case of `COC(C(=O)N1Cc2[nH]nc(NC(=O)c3ccc(N4CCN(C)CC4)cc3)c2C1)c1ccccc1` (stereo unspecified), the Ki in experiment [26] was 158 nM (active); in experiment [6] it was > 2000 nM (inactive); in experiment [7], > 7940 nM (inactive); in experiment [8] it was > 6310 nM (inactive); in [9], > 1580 nM (inactive); in [11] it was 31.6 nM (active). Besides, the Ki in experiment [13] was > 6310 nM (inactive); in experiment [16], > 2510 nM (inactive); in experiment [18] it was > 3160 nM (inactive).

`CC(C)(O)c1cn(-c2ccc3[nH]ncc3c2)nn1`: the Ki in experiment [23] was 25100 nM (active); on Focal adhesion kinase 1, 50100 nM (active); in experiment [4] it was 100000 nM (active); in [24], 2000 nM (active); in experiment [25] it was 25100 nM (active); in experiment [12] it was 10000 nM (active). Besides, the Ki in experiment [19] was 50100 nM (active).
